Laboratory results taken from patent US20250085201A1, “SUBSTITUTED QUADRUPOLAR FLUORESCENT DYES FOR LIVE CELL IMAGING” (Northwestern University, priority 2023, published 2025).

Legend:
[1] = tested on: MCF-7 breast cancer cells; assay: Cell uptake and live cell laser scanning confocal imaging; assay type: cell-based; conditions: for uptake and intracellular distribution (confocal images): 24 h, λex=405 nm
Method: Because of its low cytotoxicity and emission (FIG. 3) in the green region (548 nm) at micromolar concentrations (ΦF=0.15), water-soluble 9·4Cl was subjected to live cell imaging with MCF-7 breast cancer cells. Living cells treated with the tetracationic cyclophane at 50 and 20 μM (FIG. 7) and as low as 1 μM (FIG. 10) concentrations, were imaged by laser scanning confocal microscopy.
MCF-7 Breast cancer cells were grown in standard Dulbecco's modified eagle medium (DMEM), which was supplemented with 10% Fetal Bovine Serum (FBS) and 1% Penicillin-Streptomycin (Corning). Cells were seeded into an 8-well imaging coverglass chamber (manufacturer-CellVis) or multiwell plate using phenol red free DMEM about 24 h prior to treatment. Dye 9·4Cl was resuspended in deionized H2O before being diluted to their final concentrations in the cell culture media. Cells were treated with the dye for 24 h prior to imaging. Uptake assays were carried out at concentrations from 1-50 μM, including a vehicle control (untreated). For the cell growth assays, cells were treated with the dye for 24 h at a range of concentrations from 0.1-50 μM.
Confocal imaging was performed on a Leica SP8 laser scanning confocal microscope on a DMi8 […] stand with LAS X software in the Biological Imaging Facility (BIF) at Northwestern University. Uptake images were taken with a 63×/1.4 NA objective, scanning at a zoom of two with a pinhole of one Airy unit (AU) at 600 Hz with a galvo scanner and line averaging of two. Images were 92.35×92.35 μm (1024×1024) with 10 slices in the z direction with a step size of 0.3 μm (total stack volume 3.0 μm). A single excitation wavelength (405 nm) was used at a power of approximately 14 μW. For the emission collection, a Leica spectral Hybrid (HyD) detector set to collect a wavelength range of 500-650 nm (with a gain of 24%) was used. A transmitted light image was also collected simultaneously using the timeline photomultiplier (TL-PMT). Images were processed with FIJI/ImageJ (NIH) and settings were kept consistent throughout the series of images. Images presented are maximum intensity projections.

[2] = Transient absorption (fsTA/nsTA) and time-resolved fluorescence spectroscopy; assay type: physicochemical; conditions: in H2O
Text: The excited-state properties of these quadrupolar dyes were investigated using transient absorption (TA) spectroscopy. The TA data of dyes 1-4 and 6 in MeCN with lex=350 nm (FIGS. 9-12 and 15) show similar spectra with the same general electronic evolution, though with differing kinetics. Following excitation, strong excited-state absorption features appear between ˜450-500 nm along with a strong single peak in the near-infrared region, both of which are associated with Sn←S1 absorptions. The visible bands redshift over the following ˜100 ps, while the near-infrared band peaks first blueshift in the initial ˜10 ps before settling. These near-infrared absorption bands are similar to those observed^59,60 in extended bipyridinium compounds. Following these shifts, the excited states decay via emission with lifetimes between 3-4 ns as confirmed by time-resolved fluorescence (TRF) spectroscopy. The spectral shape of the transient species is generally maintained throughout their lifetimes, implying that the dynamics in each dye all occur on a single electronic excited state (S1) prior to emission. The spectral shifts at early times may arise due to excited-state symmetry breaking^77-78 in the quadrupolar dyes, wherein fluctuations in the instantaneous electrostatic environment afforded by the solvent transiently favor wavefunction localization on one side of the symmetric molecule, creating an excited state with a large dipole moment that is associated with the Stokes shift observed^79 in the fluorescence spectra. This localization can lead to changes in the transient absorption spectra as a result of the breakdown^42,80 of the Laporte rule. The shifts at longer times may arise from solvent or structural relaxation of the dyes.
Steady-state and time-resolved emission spectra for dyes 1-6, 7·2PF6 and 9·4PF6 were acquired using a HORIBA Fluorolog-3 spectrofluorometer, equipped with a time-correlated single photon counting (TCSPC) module (diode laser excitation at λ=375 nm) and an integrating sphere, which was used for absolute photo-luminescence quantum yield determinations. Picosecond time-resolved fluorescence measurements were recorded using a commercial direct-diode-pumped 100 kHz amplifier (Spirit 1040-HE, Spectra-Physics), producing a fundamental beam of 1040 nm (350 fs, 12 W) which was used to pump a non-collinear optical parametric amplifier (Spirit-NOPA, SpectraPhysics) capable of delivering tunable, high-repetition-rate pulses with pulse widths as short as sub-20 fs. Dyes 1-6, 7·2PF6 and 9·4PF6 were excited with 350 nm, 2 nJ laser pulses. Fluorescence was detected using a Hamamatsu C4780 Streakscope as previously described in the literature. Samples were prepared in 2-mm quartz cuvettes. All data were acquired in the single-photon-counting mode using the Hamamatsu HPD-TA software. The temporal resolution was approximately 2% of the sweep window. Single wavelength kinetic analysis was performed using a nonlinear least-squares fit to a sum of exponentials convoluted with an instrument response function. Visible and near-infrared femtosecond and nanosecond transient absorption (fsTA and nsTA, respectively) spectroscopies were performed following descriptions already recorded in the literature. The 330 nm, ˜100 fs pump pulses were generated at 1 μJ per pulse using a commercial collinear optical parametric amplifier (TOPAS-Prime, Light-Conversion, Ltd.); 414-nm pump pulses were obtained by second-harmonic generation of the 828 nm fundamental. The pump polarization was randomized using a commercial depolarizer (DPU-25-A, Thorlabs, Inc.) to eliminate any orientational dynamics resulting from the experiment. Spectra were collected on commercial spectrometers (customized Ultrafast Systems Helios and EOS spectrometers, for fsTA and nsTA, respectively) for each time window. All samples were stirred to avoid localized heating or degradation effects. The optical density was maintained at 0.6 for all samples. […]

SMILES: COc1cc2c(OC)cc1-c1cc[n+](cc1)Cc1ccc(cc1)C[n+]1ccc(cc1)-c1cc(OC)c(cc1OC)-c1cc[n+](cc1)Cc1ccc(cc1)C[n+]1ccc-2cc1 [9·4Cl]
- uptake and intracellular distribution (confocal images) ([1]; 50 μM and 10 μM, emission 500-650 nm): taken up by living cells and concentrated in intracellular compartments
- uptake and intracellular distribution (confocal images) ([1]; MCF-7, 1 μM, emission 500-650 nm): taken up by living cells and concentrated in intracellular compartments
- fluorescence in cells ([1]; MCF-7, 405 nm laser excitation, emission 500-650 nm): fluoresces brightly in cells
- cell uptake ([1]; MCF-7 cells, 1-50 μM): readily taken up by cells
- cell uptake at low treatment concentrations ([1]; as low as 1 μM): readily taken up by cells
- rate constant k2 from TA data [2]: (188 ± 4 ps)^−1 (ps)^−1
- rate constant k3 from TA data [2]: (3.45 ± 0.01 ns)^−1 (ns)^−1
- radiative decay rate constant kR ([2]; kR = kobsΦF): (17.9 ± 0.6 ns)^−1 (ns)^−1
